In US7482144B2, “Method for the production of xylitol” (priority 2000, dated 2009):

System: β-xylosidase
Assay: Possible inhibiting effect of xylitol on β-xylosidase
Format: biochemical
Description: 300 nkat concentrated β-xylosidase was incubated with 0, 1, 5, 10, 50, 100, 200 and 300 g/l of xylitol at 28° C. Samples were taken after 0, 0.5, 1, 2, 4, 6, 8, 24, 48 and 72 hours incubation and stored at −20° C. The activity of β-xylosidase was measured as described in Poutanen and Puls (1988) Appl. Microbiol. Biotechnol. 28:425-432. The activity of β-xylosidase remained stable in all the samples taken and thus it is not inhibited by xylitol.

OC[C@@H](O)[C@H](O)[C@@H](O)CO [xylitol]
Inhibition of β-xylosidase activity by xylitol (300 nkat β-xylosidase, 0-300 g/l xylitol, 28° C., 0-72 hours): not inhibited
Inhibition of xylanolytic activity by xylitol (studies conducted so far): has not been shown to inhibit
